Data on six molecules can be found in patent US11667646B2, “Solid state forms of rucaparib and of rucaparib salts” (ASSIA CHEMICAL INDUSTRIES LTD., priority 2017, dated 2023).

Where a name gives a salt, the structure may show the parent alone.

Data set [1] in a line: Solid state stability at controlled relative humidity, room temperature, open Petri dish. Format: physicochemical.
Data set [2] can be described thus: Kinetic solubility at various pH ranges. Format: physicochemical.
A further data set in a line: Hygroscopicity. The format is physicochemical.
A further data set is described as follows: Compressibility. Format: physicochemical.
A short description of data set [3]: API mass increase of the salt vs. the free base.
[4] abbreviates: 20-100% relative humidity (RH) at room temperature (RT) in open Petri dish.

Take `CNCc1ccc(-c2[nH]c3cc(F)cc4c3c2CCNC4=O)cc1.Cc1ccc(S(=O)(=O)O)cc1` [8-fluoro-2-{4-[(methylamino)methyl]phenyl}-1,3,4,5-tetrahydro-6H-azepino[5,4,3-cd]indol-6-oneTosylate]: the period of stability result in data set [1] (setting [4]) is given as “at least 1 month”. In data set [2], the kinetic solubility result is recorded as “improved”. Further, the hygroscopicity entry in “Hygroscopicity” was “non-hygroscopic”. Also, the compressibility properties entry in the data set “Compressibility” was “good”. Further, the “API mass increase of the salt vs. the free base” value in data set [3] is listed as 53%.

Regarding `CNCc1ccc(-c2[nH]c3cc(F)cc4c3c2CCNC4=O)cc1` [Crystalline Form C of Rucaparib base, 8-fluoro-2-{4-[(methylamino)methyl]phenyl}-1,3,4,5-tetrahydro-6H-azepino[5,4,3-cd]indol-6-one], the period of stability entry in data set [1] (setting [4]) is “at least 1 month”. In addition, the kinetic solubility result in data set [2] is given as “improved”. In addition, in the data set “Hygroscopicity”, the hygroscopicity result is on record as “non-hygroscopic”. The “API mass increase of the salt vs. the free base” value in data set [3] is reported as “no API mass increase”.

On to `CNCc1ccc(-c2[nH]c3cc(F)cc4c3c2CCNC4=O)cc1` [Crystalline Form I of Rucaparib base, 8-fluoro-2-{4-[(methylamino)methyl]phenyl}-1,3,4,5-tetrahydro-6H-azepino[5,4,3-cd]indol-6-one], for which the period of stability result in data set [1] (setting [4]) was “at least 1 month”. Moreover, the kinetic solubility entry in data set [2] is “improved”. For the same molecule, the hygroscopicity entry in “Hygroscopicity” is listed as “non-hygroscopic”. In addition, in data set [3], the “API mass increase of the salt vs. the free base” value was “no API mass increase”.

`CNCc1ccc(-c2[nH]c3cc(F)cc4c3c2CCNC4=O)cc1` [Crystalline Form II of Rucaparib base, 8-fluoro-2-{4-[(methylamino)methyl]phenyl}-1,3,4,5-tetrahydro-6H-azepino[5,4,3-cd]indol-6-one]: in data set [1] (20-40% relative humidity (RH) at room temperature (RT) in open Petri dish), the period of stability result was “at least 1 month”. Besides, the “API mass increase of the salt vs. the free base” value in data set [3] is on record as “no API mass increase”.

Turning to `CNCc1ccc(-c2[nH]c3cc(F)cc4c3c2CCNC4=O)cc1` [Crystalline Form IV of Rucaparib Hemi-Edisylate] [8-fluoro-2-{4-[(methylamino)methyl]phenyl}-1,3,4,5-tetrahydro-6H-azepino[5,4,3-cd]indol-6-one Hemi-Edisylate], the period of stability result in data set [1] (setting [4]) is “at least 1 month”. Besides, the kinetic solubility entry in data set [2] is “improved”. The hygroscopicity entry in the data set “Hygroscopicity” is “non-hygroscopic”. For the same molecule, the compressibility properties entry in the data set “Compressibility” is listed as “good”. For the same molecule, in data set [3], the “API mass increase of the salt vs. the free base” value is on record as 9%.

With `CNCc1ccc(-c2[nH]c3cc(F)cc4c3c2CCNC4=O)cc1` [Rucaparib camsylate, 8-fluoro-2-{4-[(methylamino)methyl]phenyl}-1,3,4,5-tetrahydro-6H-azepino[5,4,3-cd]indol-6-one ((1S,4R)-7,7 dimethyl-2-oxobicyclo[2.2.1]hept-1-yl) methane-sulfonic acid salt, reference compound], the “API mass increase of the salt vs. the free base” value in data set [3] was 72%.
